Experimental findings from ChEMBL document CHEMBL4396891, “Recent update on anti-dengue drug discovery” (Eur J Med Chem, 2019) are described below.

What is called EC50 is the concentration at which the effect is half-maximal. In general, IC50 refers to the concentration needed to halve the response being measured. One may read the inhibition as the percentage by which the read-out fell short of the control. As usually defined, the IC90 is the concentration needed for an effect of 90%.

Assay [1] concerns Dengue virus. As to the kind of experiment: Antiviral activity against dengue virus. Format: functional, organism-based.
Assay [2] deals with T1, Genome polyprotein (dengue virus type 2, UniProt P29990). As to the kind of experiment: Inhibition of DENV2 NS2B-NS3 serine protease using Bz-Nle-Lys-Arg-Arg-AMC as substrate after 15 mins by fluorescence assay.
Assay [3] relates to dengue virus type 2. As to the kind of experiment: Antiviral activity against DENV2. It counts as functional, organism-based.
In assay [4] the target is Genome polyprotein (dengue virus type 2) (UniProt P29990). As to the kind of experiment: Inhibition of DENV2 NS2B-NS3 serine protease.
Assay [5] deals with dengue virus type 1. As to the kind of experiment: Antiviral activity against DENV1 infected in African green monkey Vero cells assessed as reduction in viral replication at 10 uM after 4 days by qRT-PCR analysis relative to control. Format: functional. The conditions noted are these: 96 h. On the technique in general: Real-time PCR tracks product formation cycle by cycle.
The subject of assay [6] is dengue virus type 2. As to the kind of experiment: Antiviral activity against DENV2 infected in African green monkey Vero cells assessed as reduction in viral replication at 10 uM after 4 days by qRT-PCR analysis relative to control. It counts as functional. The conditions noted are these: 96 h.
Assay [7] relates to dengue virus type 3. Nature of the assay: Antiviral activity against DENV3 infected in African green monkey Vero cells assessed as reduction in viral replication at 10 uM after 4 days by qRT-PCR analysis relative to control. The conditions noted are these: 96 h. It counts as functional.
In assay [8] the test system is dengue virus type 4. Nature of the assay: Antiviral activity against DENV4 infected in African green monkey Vero cells assessed as reduction in viral replication at 10 uM after 4 days by qRT-PCR analysis relative to control. Format: functional. Particulars: 96 h.
Assay [9] has as its system dengue virus type 2. Nature of the assay: Antiviral activity against DENV2 infected in human Huh-7 cells. Format: functional, organism-based.
The target of assay [10] is T1, Genome polyprotein. Nature of the assay: Inhibition of His-tagged DENV2 NS2B-NS3 serine protease expressed in Escherichia coli BL21 using Boc-Gly-Arg-Arg-7-amino-4-methylcoumarin as substrate measured after 10 mins by fluorometric assay.
The subject of assay [11] is Dengue virus. As to the kind of experiment: Antiviral activity against dengue virus infected in HeLa cells assessed as reduction in viral propagation after 72 hrs by RT-qPCR analysis. Format: functional, organism-based.
Assay [12] deals with dengue virus type 2. Nature of the assay: Antiviral activity against DENV2 infected in BHK-21 cells assessed as viral replication after 24 to 48 hrs by luciferase reporter gene assay. Format: functional, organism-based.
Assay [13] has as its system dengue virus type 2. Nature of the assay: Antiviral activity against DENV2 New Guinea C infected in human Huh7 cells assessed as reduction in viral titer after 3 to 4 days by MTT assay. Format: functional, organism-based. The conditions noted are these: Huh-7.
Assay [14] relates to dengue virus type 2. Nature of the assay: Antiviral activity against DENV2 infected in BHK cells assessed as reduction in viral yield after 24 ro 48 hrs by luciferase reporter gene assay. Format: functional, organism-based. A general note: In a reporter assay the amount or activity of a reporter protein is the signal.
Assay [15] deals with dengue virus type 2. Nature of the assay: Antiviral activity against DENV2 infected in BHK-21 cells assessed as viral titer by plaque assay. It counts as functional, organism-based.
In assay [16] the test system is dengue virus type 2. Nature of the assay: Antiviral activity against DENV2 Martinique infected in African green monkey Vero E6 cells after 3 to 4 days by RT-PCR analysis. It counts as functional, organism-based. The conditions noted are these: Vero C1008.
In a further assay the target is Nonstructural protein 5 (Dengue virus, UniProt V5TFZ2). As to the kind of experiment: Inhibition of N-terminal His6-tagged DENV3 NS5 RNA dependent RNA polymerase (272 to 900 residues) after 1 hr by fluorescence assay. Set-up: species or system dengue virus type 3.
The test system of assay [17] is dengue virus type 4. Nature of the assay: Antiviral activity against DENV4 Dakar infected in African green monkey Vero E6 cells after 3 to 4 days by RT-PCR analysis. It counts as functional, organism-based. Particulars: Vero C1008.
Assay [18] relates to dengue virus type 3. As to the kind of experiment: Antiviral activity against DENV3 Bolivia infected in African green monkey Vero E6 cells after 3 to 4 days by RT-PCR analysis. Format: functional, organism-based. Particulars: Vero C1008.
Assay [19] deals with dengue virus type 1. As to the kind of experiment: Antiviral activity against DENV1 Djibouti infected in African green monkey Vero E6 cells after 3 to 4 days by RT-PCR analysis. It counts as functional, organism-based. Particulars: Vero C1008.
Assay [20] has as its system dengue virus type 1. Nature of the assay: Antiviral activity against DENV1 infected in African green monkey Vero cells assessed as reduction in viral replication after 4 days by qRT-PCR analysis. It counts as functional, organism-based. The conditions noted are these: 96 h.
The target in assay [21] is T1, Genome polyprotein. Nature of the assay: Inhibition of DENV2 NS2B-NS3 serine protease expressed using Benzoyl-Nle-Lys-Arg-Arg-AMC as substrate measured preincubated for 3 mins followed by substrate addition by fluorescence assay.
For assay [22], the system named is dengue virus type 2. As to the kind of experiment: Antiviral activity against DENV2 infected in BHK-21 cells assessed as viral replication. Format: functional, organism-based.

In brackets after ≈: the same amount, converted by molar mass.

`O[C@H]1[C@H]2c3cc4c(cc3CN3CCC(=C[C@@H]1O)[C@H]23)OCO4` [LYCORINE] yielded an EC50 in the assay with Dengue virus [1] of 0.4 to 1.8 µM.

`CCc1ccc(NS(=O)(=O)c2ccc(N3C(=O)c4ccccc4C3=O)cc2)cc1`: at Genome polyprotein [2], half-maximal inhibition (IC50) required 48.2 µM.

Regarding `CCCCC1C(C(=O)N(C)OC)C(c2ccccc2)CCN1C(=O)OC(C)(C)C` (configuration not stated), in the assay on dengue virus type 2 [3], the EC50 worked out at 2.4 µM. The INH in [4] was 257 µM.

Regarding `N#C/C(=C\c1ccc(-c2ccc(C(=O)O)cc2)s1)c1nc2cc(Cl)ccc2[nH]1`, the inhibition at 10 µM in the assay with dengue virus type 1 [5], in the assay with dengue virus type 2 [6], with dengue virus type 3 [7] and in the assay with dengue virus type 4 [8] was 50 to 82% in each case.

Regarding `O=c1c2cc(O)c(O)cc2oc2cc(O)c([C@@H]3O[C@H](CO)[C@@H](O)[C@H](O)[C@H]3O/C=C/c3ccc(O)c(O)c3)c(O)c12`, in the assay with dengue virus type 2 [9], the EC50 was found to be 4.1 µg/mL (≈ 7.37 µM).

As to `O=C(O)c1cc2sc(NC(=O)c3ccccc3Sc3ccc(C(F)(F)F)cc3)nc2cc1O`, at Genome polyprotein [10], half-maximal inhibition (IC50) was put at 66 µM.

`CCN(CC)Cc1ccc(C(=O)N(CCc2ccccc2OC)[C@@H]2CCNC2)cc1`: in the assay on Dengue virus [11], the IC50 was 36.5 µM and the IC90 stood at 35.5 µM.

Consider `CCN(CC)Cc1cc(Nc2ccnc3cc(Cl)ccc23)ccc1O` [AMODIAQUINE], for which, in the assay with dengue virus type 2 [12], the IC50 is 1.08 µM and the IC90 amounted to 2.69 µM.

With `COc1cc(/C(C#N)=C/c2cc3ccccc3s2)cc(OC)c1OC`, the EC50 in the assay on dengue virus type 2 [13] came to 7.22 µM.

In the assay with Dengue virus [1], `CC(C)C[C@@H]1NC(=O)[C@@H]2CCCN2C1=O` came in with an EC50 of 11.2 to 21.2 µM.

With `CC(C)=CCC/C(C)=C/C=O` [CITRAL], inhibition with dengue virus type 2 [3] was half-maximal at 31 µM (IC50).

Turning to `CN1CCN(CCCN2c3ccccc3Sc3ccc(Cl)cc32)CC1` [PROCHLORPERAZINE], it took 0.088 µM to reach a half-maximal effect in the assay on dengue virus type 2 [3] (EC50).

`CC(=O)O[C@@H]1C(=O)C=C2CCN3Cc4cc5c(cc4[C@H]1[C@@H]23)OCO5`: in the assay with Dengue virus [1], the EC50 was in the range of 0.4 to 1.8 µM.

In the assay with dengue virus type 2 [3], `CC[C@H]1C[C@H]2C[N@]3CCc4c([nH]c5ccc(OC)cc45)[C@](C(=O)OC)(C2)[C@H]13` came in with an EC50 of 2.6 to 10.2 µM.

As to `CCN(CC)CCCC(C)Nc1c2ccc(Cl)cc2nc2ccc(OC)cc12` (configuration not stated) [QUINACRINE], the 50% effective concentration (EC50) with dengue virus type 2 [14] came out at 5.3 µM.

With `CCN(CC)CCNC(=O)c1c(C)[nH]c(/C=C2\C(=O)Nc3ccc(F)cc32)c1C` [SUNITINIB], the half-maximal effective concentration (EC50) with dengue virus type 2 [15] was 1.96 µM.

Turning to `O=C(N[C@@H](Cc1ccc(O)cc1)C(=O)O)c1cc(-c2ccccc2)c(=O)n2c1sc1ccc(OC3CCCCC3)cc12`, the IC50 in the assay with dengue virus type 2 [16] is 6.8 to 15 µM; at Nonstructural protein 5 it was 1.5 µM; in the assay on dengue virus type 4 [17], 6.8 to 15 µM; in the assay on dengue virus type 3 [18] it was 6.8 to 15 µM; in the assay with dengue virus type 1 [19] it was 6.8 to 15 µM.

On to `CCCCC1C(C(=O)CC)C(c2ccccc2)CCN1C(=O)OC(C)(C)C` (configuration not stated), for which, in the assay with dengue virus type 2 [3], a half-maximal effect (EC50) was put at 3.2 µM. This compound also showed an INH in assay [4] of 214 µM.

At Genome polyprotein [10], `O=C(Nc1cccs1)c1ccccc1Sc1ccc([N+](=O)[O-])cc1` had an IC50 of 98 µM. In the assay on dengue virus type 1 [20], the EC50 is 3.5 µM.

Take `O[C@@H](c1cc(C(F)(F)F)nc2c(C(F)(F)F)cccc12)[C@H]1CCCCN1` [(S,R)-MEFLOQUINE]: the EC50 in the assay with dengue virus type 2 [14] was 3.22 µM.

On to `C#Cc1cccc(Nc2ncnc3cc(OCCOC)c(OCCOC)cc23)c1` [ERLOTINIB], for which, in the assay with dengue virus type 2 [15], the EC50 was found to be 4.07 µM.

In the case of `Cc1ccc(C(=O)c2cc(O)c(O)c([N+](=O)[O-])c2)cc1` [TOLCAPONE], the IC50 on Genome polyprotein [21] was in the range of 0.64 to 1.15 µM. The EC50 with dengue virus type 2 [22] amounted to 2.29 µM.

On to `CC[C@@H](c1cc(OC)c(OC)cc1OC)[C@H](C)[C@@H](/C(C)=C/c1cc(OC)c(OC)cc1OC)c1cc(OC)c(OC)cc1OC`, for which the response in the assay with Dengue virus [1] was half-maximal at 3.9 µM (EC50).

Compound `CCCc1cc(=O)oc2c(C(=O)CC(C)C)c(O)c(CC=C(C)C)c(O)c12` yielded an EC50 with dengue virus type 2 [3] of 2.6 to 10.2 µM.
